The source of these data is patent US4197403A, “4-Aminosubstituted imidazo(1,2-A)quinoxalines” (Westwood Pharmaceuticals Inc., priority 1977, dated 1980).

Values after ≈ are worked out from the molar mass of the structure shown.

The test system of test [1] is rat paw edema. Kind of test: Rat paw edema assay, oral dosing. It counts as in vivo. As to conditions: four hours after drug; for change in vivo at 100 mg/kg / change in vivo at 400 mg/kg: Rattus norvegicus, 4 h, read-out: % Difference from Control. As to the method:
(§1) The anti-inflammatory activity of representative compounds of this invention was determined by the rat paw edema assay both by local administration (Table XI below) and by oral dosing (Table XII below). For the oral dosing, the procedure of C. A. Winter, E. A. Risley and G. W. Nuss, Proc. Soc. Exp. Biol. Med. 111, 544 (1962) was employed with measurement taken four hours after the drug was administered.
(§2) Tables XI and XII report the anti-inflammatory activity of the compounds tested as % difference in the edema or swelling as compared with the control. These Tables also give the response in many instances of more than one dose level of the same drug.

For test [2], the system named is Trichophyton ajelloi. Kind of test: Antifungal activity, agar dilution method: T. ajelloi. Type of test: cell-based. As to conditions: Arthroderma uncinatum, read-out: Antifungal Activity, Parts Per Million Inhibitions of Fungus and Yeast Species: T. ajelloi. The method, then: (§3) Various compounds of this invention display antifungal and anti-yeast activity.
(§4) In Table IX below are listed the antifungal activity of a number of compounds encompassed in the present invention. These were determined by the agar dilution method as described in Chapters 2 and 3 of Methods in Microbiology, Vol. 7B, edited by J. R. Norris and D. W. Ribbons, Academic Press, New York, 1972.

In test [3] the test system is Trichophyton mentagrophytes (ATCC No. 8757 and 9129). Description: Antifungal activity, agar dilution method: T. mentagrophytes. Type of test: cell-based. As to conditions: ATCC8757, agar dilution, read-out: Antifungal Activity, Parts Per Million Inhibitions of Fungus and Yeast Species: T. mentagrophytes. As to the method:
as §3, §4

Test [4] has as its system Trichophyton rubrum (ATCC No. 10218 and 14001). Kind of test: Antifungal activity, agar dilution method: T. rubrum. It counts as cell-based. The settings on record: for Antifungal Activity, Parts Per Million Inhibitions of Fungus and Yeast Species: T. rubrum: agar dilution. As to the method: as §3, §4
Test [5] can be described thus: Immunosuppressant activity (in words).
For test [6], the system named is carrageenan rat paw edema. Description: Rat paw edema assay, local administration. It counts as in vivo. The settings on record: injected directly into paw, 1 μg, read-out: % Difference from Control. As to the method: as §1
The local administration tests were carried out similarly except the irritant (carrageenan) and the test compound were injected simultaneously at time zero.
as §2

Test [7] deals with Candida tropicalis. Description: Antifungal activity, agar dilution method: C. tropicalis. As to conditions: read-out: Antifungal Activity, Parts Per Million Inhibitions of Fungus and Yeast Species: C. tropicalis. Type of test: cell-based. As to the method:
as §3, §4

Take `Cc1cccc(C(=O)Nc2ccccc2-n2ccnc2)c1` [Compound 36]: the figures for the “% Difference from Control” value in test [1] (100 mg/kg) and in test [1] (400 mg/kg) were -7% and -68%, respectively.
In the case of `O=C(Nc1ccccc1-n1ccnc1)c1cccc(Br)c1` [Compound 59], the MIC in test [2] and in test [3] was 100 mg/L (≈ 292 µM) throughout.
In the case of `O=C(Nc1cccc(C(F)(F)F)c1)Nc1ccccc1-n1ccnc1` [Compound 82], the MIC turned out to be 100 mg/L (≈ 289 µM) in test [2]; 100 mg/L (≈ 289 µM) in test [3]; 100 mg/L (≈ 289 µM) in test [4] (Trichophyton rubrum, ATCC10218, agar dilution, read-out: Antifungal Activity, Parts Per Million Inhibitions of Fungus and Yeast Species: T. rubrum).
Take `c1ccc2c(c1)ncc1nccn12` [Compound 109, imidazo[1,2-a]quinoxaline]: the immunosuppressant activity result in test [5] is listed as “lacks immunosuppressant activity”.
Consider `CCCCCc1nc2ccccc2n2ccnc12` [Compound 114], for which the change in vivo at 0.001 mg in test [6] is -68.2%.
`CCCCCCCc1nc2ccccc2n2ccnc12` [Compound 116]: the MIC in test [2] worked out at 100 mg/L (≈ 374 µM).
Regarding `CCCCCCCCCCCCCCCc1nc2ccccc2n2ccnc12` [Compound 119], the “Antifungal Activity, Parts Per Million Inhibitions of Fungus and Yeast Species: T. rubrum” value in test [4] was determined as 8 Parts Per Million.
In the case of `CCCCCCCCCCCCCCCCCc1nc2ccccc2n2ccnc12` [Compound 120], the “Antifungal Activity, Parts Per Million Inhibitions of Fungus and Yeast Species: T. rubrum” value in test [4] is listed as 1 Parts Per Million.
With `FC(F)(F)c1nc2ccccc2n2ccnc12` [Compound 122], the change in vivo at 100 mg/kg in test [1] (100 mg/kg) was -17%. Moreover, in test [1] (400 mg/kg), the change in vivo at 400 mg/kg is -68%.
On to `c1ccc(-c2nc3ccccc3n3ccnc23)cc1` [Compound 131, 4-phenylimidazo[1,2-a]quinoxaline], for which, in test [5], the immunosuppressant activity entry is “only minor activity”.
In the case of `CC(=O)Nc1ccc(-c2nc3ccccc3n3ccnc23)cc1` [Compound 155], in test [1] (100 mg/kg), the change in vivo at 100 mg/kg was determined as 70%. Moreover, the change in vivo at 400 mg/kg in test [1] (400 mg/kg) is -25%.
For `CC(=O)Oc1ccc(-c2nc3ccccc3n3ccnc23)cc1` [Compound 163], the MIC in test [7] came to 100 mg/L (≈ 330 µM).
